Source: patent US20090069408A1, “TRICYCLIC COMPOUNDS USEFUL IN TREATING IRON DISORDERS” (XENON PHARMACEUTICALS INC., priority 2007, published 2009)
Structures can show the parent of a compound that is named as a salt.

Target: T1, DMT1 (Homo sapiens, UniProt P49281)
T1 sequence (P49281 1-568): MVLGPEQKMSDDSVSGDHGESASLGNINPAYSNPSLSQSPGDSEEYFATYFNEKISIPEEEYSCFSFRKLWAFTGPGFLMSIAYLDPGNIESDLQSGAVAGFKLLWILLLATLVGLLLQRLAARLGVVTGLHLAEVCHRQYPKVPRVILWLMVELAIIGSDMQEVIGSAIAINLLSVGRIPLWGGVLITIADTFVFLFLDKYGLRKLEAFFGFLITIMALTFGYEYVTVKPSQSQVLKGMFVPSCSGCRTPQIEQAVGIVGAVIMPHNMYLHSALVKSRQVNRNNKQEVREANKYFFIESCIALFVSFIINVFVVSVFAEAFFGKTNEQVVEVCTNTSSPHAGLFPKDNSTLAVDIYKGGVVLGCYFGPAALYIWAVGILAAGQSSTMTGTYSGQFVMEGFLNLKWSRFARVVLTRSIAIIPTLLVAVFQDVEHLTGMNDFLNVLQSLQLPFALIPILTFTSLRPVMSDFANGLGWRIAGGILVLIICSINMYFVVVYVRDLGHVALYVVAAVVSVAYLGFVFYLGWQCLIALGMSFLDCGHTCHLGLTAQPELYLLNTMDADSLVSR
Assay: DMT1 Activity Assay (in vitro)
Format: cell-based
Conditions: read-out: IC50 Activity Level
From the text: In particular, identification of the compounds of the invention ability to modulate, preferably to inhibit, DMT1 activity, can be assessed using a variety of in vitro and in vivo assays, for measuring uptake of reduced iron (Fe^2+). One such protocol involves the screening of chemical agents for ability to modulate the activity of DMT1 thereby identifying it as a modulating agent. The in vitro activity of DMT1 can be measured in cell based assays by either directly measuring iron flux (using a radioactively labelled iron ^55Fe) or by measuring the fluorescence of a cell permeable iron fluorophore such as calcein. Stable cell lines overexpressing DMT1 are exposed to ^55Fe or loaded with calcein and then compound is applied. […] Alternatively, in another format electrophysiological techniques can be used to measure the current or iron or other metals traversing the cell membrane with DMT1 in a Xenopus oocyte or other cell based system (Gunshin et al., Nature, 1997, 31; 388(6641):482-8).
This example discloses various in vitro assay for testing and profiling test agents against DMT1 stably expressed in cells of either an endogenous or recombinant origin. These assays can use stable cell lines overexpressing DMT1 or intestinal cells and intestinal tissue expressing endogenous DMT1. DMT1 function could also be assessed in other cell types that express DMT1. Of greatest relevance would be the erythrocytes (e.g. K562 cells) or hepatocytes (e.g. […]).
DMT1 function can be assessed in a number of ways, including monitoring fluorescence changes of an iron fluorophore (e.g. calcein), monitoring uptake of radiolabelled iron (^55Fe or ^59Fe) (Picard et al., J. Biol. Chem., 2000, 275(46):35738-45 and Wetli et al., Chem. Biol. 2006 September; 13(9):965-72), or by assessing the current or transport of iron and other metals into the cells or tissues using standard electrophysiological techniques (Gunshin et al., Nature, 1997, 388(6641):482-8.).
Variations of these assays involve alterations of incubation times, the iron status of the cells and tissues (which may be modulated by chemical chelators or by harvesting from iron deficient animals), the metal cation detected and the pH of the reaction can generally be made by conventional techniques known to those skilled in the art.

Compared with CC(C)(C)c1cc(CSC(=N)N)c2c(c1)C(C)(C)c1cc(C(C)(C)C)cc(CSC(=N)N)c1O2 [Example 4, (2,7-di-tert-butyl-9,9-dimethyl-9H-xanthene-4,5-diyl)bis(methylene) dicarbamimidothioate dihydrobromide], N=C(N)SCc1cc(F)cc2c1-c1c(CSC(=N)N)cc(F)cc1-2 [Example 5, (3,6-difluorobiphenylene-1,8-diyl)bis(methylene) dicarbamimidothioate dihydrobromide] is lower in IC50: no less than 1000 nM for the first, 10 to 100 nM for the second. The second is the more potent here.

N=C(N)SCc1c(Br)ccc2c1sc1c(CSC(=N)N)c(Br)ccc12 [Example 1.1, (3,7-dibromodibenzo[b,d]thiophene-4,6-diyl)bis(methylene) dicarbamimidothioate dihydrobromide] and N=C(N)SCc1cccc2c1sc1c(CSC(=N)N)c(Br)ccc12 [Example 1.2, (3-bromodibenzo[b,d]thiophene-4,6-diyl)bis(methylene) dicarbamimidothioate dihydrobromide] fall in the same range of IC50: 100 to 1000 nM for the first, 100 to 1000 nM for the second.

N=C(N)SCc1cccc2c1oc1c(CSC(=N)N)cc(F)cc12 [Example 1.6, (2-fluorodibenzo[b,d]furan-4,6-diyl)bis(methylene) dicarbamimidothioate dihydrobromide] and N=C(N)SCc1cccc2c1oc1c(CSC(=N)N)cccc12 [Example 1.8, dibenzo[b,d]furan-4,6-diylbis(methylene) dicarbamimidothioate dihydrobromide] fall in the same range of IC50: 10 to 100 nM for the first, 10 to 100 nM for the second.

First: N=C(N)SCc1cccc2c1Oc1c(CSC(=N)N)cccc1S2 [Example 1.12, phenoxathiine-4,6-diylbis(methylene) dicarbamimidothioate dihydrobromide]
Second: N=C(N)SCc1cccc2c1-c1c(CSC(=N)N)cccc1-2 [Example 2.1, biphenylene-1,8-diylbis(methylene)dicarbamimidothioate dihydrobromide]
The IC50 of the first is higher: 100 to 1000 nM for the first, 10 to 100 nM for the second.

Compared with N=C(N)SCc1c(F)ccc2c1oc1c(CSC(=N)N)c(F)ccc12 [Example 1.4, (3,7-difluorodibenzo[b,d]furan-4,6-diyl)bis(methylene) dicarbamimidothioate dihydrobromide], Cc1ccc2c(oc3c(CSC(=N)N)c(C)ccc32)c1CSC(=N)N [Example 1.3, (3,7-dimethyldibenzo[b,d]furan-4,6-diyl)bis(methylene) dicarbamimidothioate dihydrobromide] is higher in IC50: 10 to 100 nM for the first, 100 to 1000 nM for the second. The first is the more potent here.

N=C(N)SCc1cccc2c1C(=O)c1c(CSC(=N)N)cccc1-2 [Example 2, (9-oxo-9H-fluorene-1,8-diyl)bis(methylene) dicarbamimidothioate dihydrobromide] and N=C(N)SCc1cccc2c1-c1c(CSC(=N)N)cccc1C2=O [Example 1.15, (9-oxo-9H-fluorene-4,5-diyl)bis(methylene) dicarbamimidothioate dihydrobromide] cannot be ordered by IC50: 100 to 1000 nM for the first, no less than 1000 nM for the second.

N=C(N)SCc1cccc2sc3cccc(CSC(=N)N)c3c12 [Example 1.14, dibenzo[b,d]thiophene-1,9-diylbis(methylene) dicarbamimidothioate dihydrobromide] and N=C(N)SCc1cccc2c1sc1c(CSC(=N)N)cccc12 [Example 1, dibenzo[b,d]thiophene-4,6-diylbis(methylene) dicarbamimidothioate dihydrobromide] cannot be ordered by IC50: no less than 1000 nM for the first, 100 to 1000 nM for the second.

N=C(N)SCc1cccc2c(=O)c3cccc(CSC(=N)N)c3oc12 [Example 1.16, (9-oxo-9H-xanthene-4,5-diyl)bis(methylene) dicarbamimidothioate dihydrobromide] and Cc1c2cccc(CSC(=N)N)c2nc2c(CSC(=N)N)cccc12 [Example 1.17, (9-methylacridine-4,5-diyl)bis(methylene) dicarbamimidothioate dihydrobromide] cannot be ordered by IC50: no less than 1000 nM for the first, no less than 1000 nM for the second.

N=C(N)SCc1c(Br)ccc2c1oc1c(CSC(=N)N)c(Br)ccc12 [Example 1.13, (3,7-dibromodibenzo[b,d]furan-4,6-diyl)bis(methylene) dicarbamimidothioate dihydrobromide] and N=C(N)SCc1c(Cl)ccc2c1oc1c(CSC(=N)N)c(Cl)ccc12 [Example 1.5, (3,7-dichlorodibenzo[b,d]furan-4,6-diyl)bis(methylene) dicarbamimidothioate] fall in the same range of IC50: 100 to 1000 nM for the first, 100 to 1000 nM for the second.

First: N=C(N)SCc1cccc2c1sc1c(CSC(=N)N)cc(F)cc12 [Example 1.10, (2-fluorodibenzo[b,d]thiophene-4,6-diyl)bis(methylene) dicarbamimidothioate dihydrobromide]
Second: N=C(N)SCc1cc(F)cc2c1sc1c(CSC(=N)N)cc(Cl)cc12 [Example 1.11, (2-chloro-8-fluorodibenzo[b,d]thiophene-4,6-diyl)bis(methylene) dicarbamimidothioate dihydrobromide]
The IC50 of the first is higher: 100 to 1000 nM for the first, 10 to 100 nM for the second.

N=C(N)SCc1cccc2cc3cccc(CSC(=N)N)c3nc12 [Example 1.18, acridine-4,5-diylbis(methylene) dicarbamimidothioate dihydrobromide] and N=C(N)SCc1cccc2cc3cccc(CSC(=N)N)c3cc12 [Example 1.9, anthracene-1,8-diylbis(methylene) dicarbamimidothioate dihydrobromide] fall in the same range of IC50: 100 to 1000 nM for the first, 100 to 1000 nM for the second.

N=C(N)SCc1cccc2c1-c1c(cccc1CSC(=N)N)CSC2 [Example 1.19, (5,7-dihydrodibenzo[c,e]thiepine-1,11-diyl)bis(methylene) dicarbamimidothioate dihydrobromide] and N=C(N)SCc1ccc(CSC(=N)N)c2c1-c1c(CSC(=N)N)ccc(CSC(=N)N)c1-2 [Example 3, biphenylene-1,4,5,8-tetrayltetrakis(methylene) tetracarbamimidothioate tetrahydrobromide] cannot be ordered by IC50: no less than 1000 nM for the first, 100 to 1000 nM for the second.

For N=C(N)SCc1cc(Br)cc2c1oc1c(CSC(=N)N)cc(Br)cc12 [Example 1.7, (2,8-dibromodibenzo[b,d]furan-4,6-diyl)bis(methylene) dicarbamimidothioate dihydrobromide], the IC50 was 10 to 100 nM.

System: not given
Assay: not given
Conditions: not given

N=C(N)SCc1cccc2cc3cccc(CSC(=N)N)c3cc12 (as salt: hydrobromid) [Example 1.9, anthracene-1,8-diylbis(methylene) dicarbamimidothioate dihydrobromide] showed a melting point greater than 250 °C.
In the case of Cc1ccc2c(oc3c(CSC(=N)N)c(C)ccc32)c1CSC(=N)N (as salt: hydrobromid) [Example 1.3, (3,7-dimethyldibenzo[b,d]furan-4,6-diyl)bis(methylene) dicarbamimidothioate dihydrobromide], the melting point is reported as greater than 220 °C.
With N=C(N)SCc1cccc2c1oc1c(CSC(=N)N)cc(F)cc12 (as salt: hydrobromid) [Example 1.6, (2-fluorodibenzo[b,d]furan-4,6-diyl)bis(methylene) dicarbamimidothioate dihydrobromide] the melting point was greater than 220 °C.
In the case of N=C(N)SCc1cc(F)cc2c1-c1c(CSC(=N)N)cc(F)cc1-2 (as salt: hydrobromid) [Example 5, (3,6-difluorobiphenylene-1,8-diyl)bis(methylene) dicarbamimidothioate dihydrobromide], the melting point is reported as greater than 250 °C.

Compared with N=C(N)SCc1cccc2sc3cccc(CSC(=N)N)c3c12 (as salt: hydrobromid) [Example 1.14, dibenzo[b,d]thiophene-1,9-diylbis(methylene) dicarbamimidothioate dihydrobromide], N=C(N)SCc1cccc2c1-c1c(CSC(=N)N)cccc1C2=O (as salt: hydrobromid) [Example 1.15, (9-oxo-9H-fluorene-4,5-diyl)bis(methylene) dicarbamimidothioate dihydrobromide] is lower in melting point: 228 to 230 °C for the first, 218 to 220 °C for the second.

Work on N=C(N)SCc1cccc2c1-c1c(cccc1CSC(=N)N)CSC2 (as salt: hydrobromid) [Example 1.19, (5,7-dihydrodibenzo[c,e]thiepine-1,11-diyl)bis(methylene) dicarbamimidothioate dihydrobromide] yielded a melting point of 155 to 158 °C.
